Measurements: patent publication US20080269202A1, “Novel 2,3-benzodiazepine derivatives and their use as antipsychotic agents” (Teva Pharmaceutical Industries Ltd., priority 2007, published 2008)

Test system: PCP-induced locomotion
Test: PCP induced locomotor activity test (open field)
Type: in vivo, mice
Details: all doses (1, 3, 6, 10, 15 mg/kg) by gavage, PCP 5 mg/kg, vs vehicle
Experimental: The effects of compounds 121 and 183, administered orally, were also evaluated in the PCP induced locomotor activity test. Compound 121 was designated as “Compound A” and Compound 183 was designated as “Compound B” for purposes of this study. In general, the study aimed to test Compounds A and B for potential antipsychotic activity in PCP treated mice.
Compounds A & B were dissolved in 3% Tween: Compound A: 1, 3, 6, 10, and 15 mg/kg; Compound B: 3, 7, 14, 28, and 40 mg/kg; Compounds A+B were administered by gavage.
PCP (5 mg/kg) was dissolved in sterile injectable water.
The open field (“OF”) test assessed both anxiety and locomotor behavior. The open field chambers are Plexiglas square chambers (27.3×27.3×20.3 cm; Med Associates Inc., St Albans, Vt.) surrounded by infrared photobeams (16×16×16) to measure horizontal and vertical activity. The analysis was configured to divide the open field into a center and periphery zone. Distance traveled was measured from horizontal beam breaks as the mouse moved whereas rearing activity was measured from vertical beam breaks.
Mice were brought to the activity experimental room for at least 1 hr acclimation to the experimental room conditions prior to testing. […]
Data was analyzed to show baseline activity (activity during the 30 min prior to PCP injection) and PCP-induced activity (activity during the 60 min after PCP injection).

For `CNC(=O)N1N=C(c2ccc(N)cc2)c2cc(OC)c(OC)cc2C[C@H]1C` [Example 121], which “effect on PCP induced locomotion” value is on record?
Its value is “significantly decreased”.
